From ChEMBL document CHEMBL1201862, “PubChem BioAssay data set” (2004) come the findings set out here.

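Each compound was tested at five concentrations against cells in 96-well plates for 48 hours. Abbreviation: GI50, concentration required for 50% inhibition of growth.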 The source made the active and inactive calls. Cut-off read from the data, not from the text of the source: active = GI50 up to about 1.1 µM and inactive = higher. Where only a bound is given, the exact number is not on record here.

Test systems include ACHN; CCRF-CEM; HCC 2998; HCT-116; HL-60; HOP-92; LOX IMVI; M19-MEL; MDA-MB-435; MDA-N; MOLT-4; NCI-H226; NCI-H23; SF-539; SK-MEL-2; SK-OV-3; SN12C; SNB-19; SNB-75; U-251.
Assay in all cases: NCI tumour cell line growth inhibition, 48 h

Turning to `C=C(CN(C)C)C(=O)c1ccccc1OC`, the GI50 in the assay on ACHN was 14.5 µM (inactive); in the assay with CCRF-CEM, 2.51 µM (inactive); in the assay on HCC 2998, 34.6 µM (inactive); in the assay with HCT-116, 15.6 µM (inactive); in the assay on HL-60 it was 3.23 µM (inactive); in the assay with HOP-92, 14.7 µM (inactive). For the same molecule, the GI50 is 13.8 µM (inactive) in the assay with LOX IMVI; 16.3 µM (inactive) in the assay with M19-MEL; 19.5 µM (inactive) in the assay with MDA-MB-435; 18.2 µM (inactive) in the assay with MDA-N; 2.46 µM (inactive) in the assay on MOLT-4; 37.2 µM (inactive) in the assay on NCI-H226. Further, the GI50 in the assay on NCI-H23 was 17.9 µM (inactive); in the assay on SF-539, 15.6 µM (inactive); in the assay on SK-MEL-2, 14.4 µM (inactive); with SK-OV-3 it was 47.5 µM (inactive); in the assay with SN12C it was 18.9 µM (inactive); in the assay on SNB-19, 44.4 µM (inactive). Also, the results for the GI50 with SNB-75 and in the assay with U-251 were 27.2 µM (inactive) and 24.5 µM (inactive), respectively.
Regarding `O=C(NCCCCCCCCNC(=O)c1cccc2ccccc12)c1cccc2ccccc12`, the GI50 in the assay on ACHN was 17.1 µM (inactive); in the assay on CCRF-CEM, > 100 µM (inactive); with HCC 2998, > 95.7 µM (inactive); with HCT-116, 24.4 µM (inactive); with HL-60 it was > 100 µM (inactive); in the assay on HOP-92, 4.34 µM (inactive). The GI50 was > 77.8 µM (inactive) in the assay on LOX IMVI; > 86.1 µM (inactive) in the assay with M19-MEL; > 100 µM (inactive) in the assay on MDA-MB-435; > 100 µM (inactive) in the assay on MDA-N; > 100 µM (inactive) in the assay on MOLT-4; 8.43 µM (inactive) in the assay with NCI-H226. Moreover, the GI50 with NCI-H23 is 23.6 µM (inactive); in the assay with SF-539, 4.94 µM (inactive); with SK-MEL-2 it was 37.2 µM (inactive); with SK-OV-3 it was 10.7 µM (inactive); with SN12C it was 18.8 µM (inactive); with SNB-19, 20.1 µM (inactive). Moreover, the GI50 is 4.61 µM (inactive) in the assay on SNB-75 and 12.5 µM (inactive) in the assay with U-251.
For the molecule `CC(=O)OC(C)(C)/C=C/C(=O)[C@](C)(O)[C@H]1[C@H](O)C[C@@]2(C)[C@@H]3CC=C4[C@@H](C=C(O)C(=O)C4(C)C)[C@]3(C)C(=O)C[C@]12C` [CUCURBITACIN E], the GI50 is 0.0179 µM (active) with ACHN; 0.0298 µM (active) with CCRF-CEM; 0.0501 µM (active) in the assay with HCC 2998; 0.034 µM (active) with HCT-116; 0.0313 µM (active) with HL-60; 0.0302 µM (active) in the assay on HOP-92. In addition, the GI50 with LOX IMVI was 0.0101 µM (active); in the assay on M19-MEL it was 0.0807 µM (active); in the assay with MDA-MB-435, 0.604 µM (active); with MDA-N, 0.0518 µM (active); in the assay with MOLT-4, 0.246 µM (active); in the assay on NCI-H226, 0.0327 µM (active). In addition, the GI50 in the assay on NCI-H23 was 0.055 µM (active); with SF-539 it was 0.023 µM (active); in the assay on SK-MEL-2, 0.0139 µM (active); in the assay on SK-OV-3 it was 0.0436 µM (active); in the assay with SN12C, 0.0394 µM (active); in the assay with SNB-19 it was 0.057 µM (active). For the same molecule, the GI50 is 0.0187 µM (active) in the assay with SNB-75 and 0.0203 µM (active) in the assay with U-251.
On to `O=P(O)(NCCCl)NCCCl` [PALIFOSFAMIDE], for which the GI50 in the assay on ACHN was 39.3 µM (inactive); in the assay with CCRF-CEM it was 47.5 µM (inactive); with HCC 2998, > 100 µM (inactive); in the assay with HCT-116 it was > 100 µM (inactive); in the assay with HL-60, > 51.3 µM (inactive); in the assay with HOP-92 it was > 100 µM (inactive). Besides, the GI50 in the assay with LOX IMVI was 29.9 µM (inactive); in the assay on M19-MEL, > 10 µM (inactive); with MDA-MB-435 it was > 100 µM (inactive); in the assay on MDA-N, > 100 µM (inactive); with MOLT-4, 60.3 µM (inactive); with NCI-H226, > 100 µM (inactive). Besides, the GI50 is 64.6 µM (inactive) in the assay on NCI-H23; 52.5 µM (inactive) with SF-539; > 100 µM (inactive) in the assay on SK-MEL-2; > 55.8 µM (inactive) in the assay on SK-OV-3; 63 µM (inactive) with SN12C; > 10 µM (inactive) with SNB-19. For the same molecule, the GI50 in the assay with SNB-75 is > 65.6 µM (inactive); in the assay with U-251, > 10 µM (inactive).
